Laboratory results: patent US20030181436A1, “Treatment for AIDS, HIV, and other related diseases and compounds for use therewith” (priority 2001, published 2003)

Tests used:
HIV = experiment: HeLa CD4 LTR β-gal time of addition assay; assay type: cell-based; details: single round, high M.O.I.
Source text: This time of addition assay measures reproducible events from initial virus binding to the trans activation of the β-galactosidase reporter by newly produced Tat protein. This is a single round of infection assay and is thus “cleaner” and more “precise” than a multi-round time of addition assay. […] Since it is hypothesized that the K and Z compounds work by interfering with virus transcription the later possibility seems more likely. Thus the use of a time of addition assay with PBMCs was utilized.

PBMCs = assay type: cell-based, Human
Protocol: Peripheral blood […] cells (PBMCs) were obtained from normal hepatitis B and C and HIV-1 negative donors by ficoll hypaque gradient separation. Briefly, anti-coagulated blood was diluted 1:1 with Dulbecco's phosphate buffered saline without Ca^+2 and Mg^+@ (PBS) and layered over 14 mL of Lymphocyte separation media in a 50 ml centrifuge tube. Tubes were then centrifuged for 30 minutes at 600×g. Banded PBLs were gently aspirated from the resulting interface and subsequently washed 2× with PBS by low speed centrifugation. The mononuclear cells were counted, viability determined by Trypan Blue dye exclusion and resuspended in RPMI 1640 medium supplemented with 15% FBS (heat inactivated), 2 mM L-glutamine, 100 U/mL penicillin, 100 μg/mL streptomycin, and 10 μg/mL gentamycin with 2 μg/mL phytohemagluttin (PHA) at 1×10^6 cells/mL. The cells were cultured for 48 to 72 h at 37° C., 5%, C^02. Following incubation, cells were collected by centrifugation, washed and resuspended in RPMI 1640 supplemented with 15% FBS (heat inactivated), 2 mM L-glutamine, 100 U/mL penicillin, 100 μg/mL streptomycin, and 10 μg/mL gentamycin with 40 U/mL, recombinant IL-2 (R & D Systems, Minneapolis, Minn.). IL-2 was included in the culture medium to maintain the cell division initiated by the PHA mitogenic stimulation. The cultures were then maintained until use by ½ culture volume change with fresh IL-2 containing medium every 3 days.
Human peripheral blood mononuclear cells from a minimum of 2 donors, that were blasted with PHA and IL-2, were counted, viability determined by Trypan Blue dye exclusion and mixed in equal ratios. Pooled donors were used to minimize the variability observed between individual donors which results from quantitative and qualitative differences in HIV infection and overall response to the PHA and IL-2 of primary lymphocyte populations. […] The assay was incubated for 6 days in a humidified atmosphere at 37° C., 5% CO2, the plates analyzed for cell viability by MTS dye reduction or incorporation of [^3H] metabolite incorporation.
[^3H]Uridine, [^3H] thymidine or [^3H]leucine incorporation were measured in the following manner. […] Incorporation was then determined on a Wallac Microbeta counter following lysis of the cells with H2O and capture on glass fiber filters using a Skatron harvester.
At assay termination the assay plates were stained with the soluble tetrazolium-based dye MTS (CellTiter® Reagent, Promega) to determined cell viability and quantify compound toxicity. MTS is metabolized by the mitochondria enzymes of metabolically active cells to a soluble formazan product, allowing the rapid quantitative analysis cell viability and compound cytotoxicity. […]

HeLa CD4 LTR β-gal cells = experiment: Cytotoxicity for HeLa CD4 LTR β-gal cells; assay type: cell-based; details: for cytotoxic effects on the HeLa CD4 LTR β-gal cells: initial testing
Protocol: At assay termination the assay plates were stained with the soluble tetrazolium-based dye MTS (CellTiter® Reagent, Promega) to determined cell viability and quantify compound toxicity. […] At termination of the assay 20 μL of MTS reagent was added per well. The wells were incubated for 4 h at 37° C., 5% CO2. Adhesive plate scalers were used in place of the lids, the sealed plate was inverted several times to mix the soluble formazan product and the plate was read spectrophotometrically at 490 nm with a 650 nm reference wavelength on a Molecular Devices Vmax plate reader.
This cell line represents one of 3 standard models for performing time of addition assays.

Substance: Potassium Iodiscorbate [Compound K]
- inhibition of HIV replication (HIV): failed to inhibit
- TC50 in PBMCs by MTS (PBMCs): 499 µg/mL
- non-toxic to PBMCs at concentrations (PBMCs): above 400 μg/ml
- protein (leucine incorporation) and RNA (uridine incorporation) production start to drop (PBMCs): above 32 μg/ml
- cytotoxic effects on the HeLa CD4 LTR β-gal cells (HeLa CD4 LTR β-gal cells): no significant cytotoxic effects

Substance: Zinc Iodiscorbate [Compound Z]
- inhibition of HIV replication (HIV): failed to inhibit
- non-toxic to PBMCs at concentrations (PBMCs): above 400 μg/ml
- TOXICITY VALUES (Cell Titer) MEAN (HeLa CD4 LTR β-gal cells; 3.2 μG/mL): 1.156 O. D.
- TOXICITY VALUES (Cell Titer) MEAN (HeLa CD4 LTR β-gal cells; 10 μG/mL): 1.176 O. D.
- % CC (HeLa CD4 LTR β-gal cells; 100 μG/mL): 22.6%
- TOXICITY VALUES (Cell Titer) MEAN (HeLa CD4 LTR β-gal cells; 100 μG/mL): 0.259 O. D.
- % CC (HeLa CD4 LTR β-gal cells; 320 μG/mL): 18.5%
- TOXICITY VALUES (Cell Titer) MEAN (HeLa CD4 LTR β-gal cells; 320 μG/mL): 0.212 O. D.
- % CC (HeLa CD4 LTR β-gal cells; 1000 μG/mL): 18.2%
- TOXICITY VALUES (Cell Titer) MEAN (HeLa CD4 LTR β-gal cells; 1000 μG/mL): 0.208 O. D.
- TC50 (HeLa CD4 LTR β-gal cells; HeLa CD4 LTR β-gal cells): 75 µg/mL
- cytotoxic effects on the HeLa CD4 LTR β-gal cells (HeLa CD4 LTR β-gal cells): no significant cytotoxic effects
